What was measured:
[1] = Pharmacokinetics of 29 in rats; conditions: male, Sprague-Dawley, rat, in vivo
[2] = Caco-2 bidirectional permeability; format: in vitro ADME; conditions: Table 3
[3] = tested on: Salmonella typhimurium (TA98, TA100, TA1535, TA1537) and Escherichia coli (WP2 uvrA); assay: Bacterial reverse mutation assay; conditions: presence and absence of S9; monotartaric salts; 1.5 to 5000 μg/plate

Row | SMILES | AUC(0-inf) ([1]; iv, 1 mg/kg) | AUC(0-inf) ([1]; po, 2 mg/kg) | Caco-2 cells A-B [2] | mutagenicity in the TA1537 strain (Ames assay) [3]
1 | Cc1ccc2nc(N3CCC(NC4CCOCC4)CC3)c(-c3nc(C)no3)cc2c1 [Compound 29, 1-(6-methyl-3-(3-methyl-1,2,4-oxadiazol-5-yl)quinolin-2-yl)-N-(tetrahydro-2H-pyran-4-yl)piperidin-4-amine] | 0.212 µg·h/mL | 0.0284 µg·h/mL | 26.2 ×10⁻⁶ cm/s | –
2 | CCc1ccc2nc(N3CCC(N[C@@H](C)C(C)C)CC3)c(-c3nc(C)no3)cc2c1 [Compound 33, (S)-1-(6-ethyl-3-(3-methyl-1,2,4-oxadiazol-5-yl)quinolin-2-yl)-N-(3-methylbutan-2-yl)piperidin-4-amine] | – | – | – | showed a mutagenic response in the TA1537 strain but only in the absence of S9
3 | CCc1ccc2nc(N3CCC(N[C@H]4CCCC[C@@H]4O)CC3)c(-c3nc(C)no3)cc2c1 [Compound 34, (1S,2S)-2-((1-(6-ethyl-3-(3-methyl-1,2,4-oxadiazol-5-yl)quinolin-2-yl)piperidin-4-yl)amino)cyclohexanol] | – | – | – | exhibited mutagenicity in the TA1537 strain in the presence and absence of S9
4 | CCc1ccc2nc(N3CCC(NCC4(C)COC4)CC3)c(-c3nc(C)no3)cc2c1 [Compound 35, 1-(6-ethyl-3-(3-methyl-1,2,4-oxadiazol-5-yl)quinolin-2-yl)-N-((3-methyloxetan-3-yl)methyl)piperidin-4-amine] | – | – | – | exhibited mutagenicity in the TA1537 strain in the presence and absence of S9
5 | CCc1ccc2nc(N3CCC(N[C@@H]4CCCOC4)CC3)c(-c3nc(C)no3)cc2c1 [Compound 36, (R)-1-(6-ethyl-3-(3-methyl-1,2,4-oxadiazol-5-yl)quinolin-2-yl)-N-(tetrahydro-2H-pyran-3-yl)piperidin-4-amine] | – | – | – | showed a mutagenic response in the TA1537 strain but only in the absence of S9

Reference: PMC6395531 (Journal of medicinal chemistry, 2019)
